We go through one molecule from US6413980B1, “Nitrogen containing heterobicycles as factor Xa inhibitors” (Bristol-Myers Squibb Pharma Company, priority 1998, dated 2002).

SMILES strings stand for the structures. Structures can show the parent of a compound that is named as a salt.

Broadly, the melting point is the temperature, or range, at which the solid turns liquid. The molecule `Cc1nn(-c2cccc(CN)c2)c2c1CCN(c1ccc(-c3ccccc3CN3CC[C@H](O)C3)cc1)C2` (as salt: trifluoroacetic acid salt) [Example 100, 1-[3-Aminomethylphenyl]-3-methyl-6-[(2′-N-((3-(S)-hydroxy)pyrrolidinyl)methyl-[1,1′]-biphen-4-yl)]-1,4,5,6-tetrahydro-7H-pyrazolo-[3,4-c]-pyridin-7-one bis-trifluoroacetic acid salt] displayed a melting point of 79.2 °C.
